Laboratory results from paper PMC5766581, “NF-κB inducing kinase is a therapeutic target for systemic lupus erythematosus” (Nature Communications, 2018).

Key:
Experiment in all cases: SelectScreen kinase panel
Type in all cases: biochemical
[1] = molecular target: T1, Abl (Homo sapiens, UniProt P00519)
T1 construct: purchased Invitrogen / ThermoFisher SelectScreen
In short: (§1)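 Mean percentage inhibition was determined through Invitrogen's SelectScreen broad profiling service, which used peptide-phosphorylation, ADP-quantitation, or ATP-site binding assays (Z′-LYTE, Adapta, LanthaScreen, respectively).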

[2] = molecular target: T2, MST4 (Homo sapiens, UniProt Q9P289)
T2 construct: purchased Invitrogen / ThermoFisher SelectScreen
In short: as §1

[3] = molecular target: T3, CLK2 (Homo sapiens, UniProt P49760)
T3 construct: purchased Invitrogen / ThermoFisher SelectScreen
In short: as §1

[4] = molecular target: T4, Flt4 (Homo sapiens, UniProt P35916)
T4 construct: purchased Invitrogen / ThermoFisher SelectScreen
In short: as §1

[5] = molecular target: T5, PDGFR_alpha (Homo sapiens, UniProt P16234)
T5 construct: purchased Invitrogen / ThermoFisher SelectScreen
In short: as §1

[6] = molecular target: T6, Srm (Homo sapiens, UniProt Q9H3Y6)
T6 construct: purchased Invitrogen / ThermoFisher SelectScreen
In short: as §1

[7] = molecular target: T7, HIPK4 (Homo sapiens, UniProt Q8NE63)
T7 construct: purchased Invitrogen / ThermoFisher SelectScreen
In short: as §1

[8] = molecular target: T8, TSSK1 (Homo sapiens, UniProt Q9BXA7)
T8 construct: purchased Invitrogen / ThermoFisher SelectScreen
In short: as §1

[9] = molecular target: T9, CK1_gamma2 (Homo sapiens, UniProt P78368)
T9 construct: purchased Invitrogen / ThermoFisher SelectScreen
In short: as §1

[10] = molecular target: T10, CaMKII_beta (Homo sapiens, UniProt Q13554)
T10 construct: purchased Invitrogen / ThermoFisher SelectScreen
In short: as §1

[11] = molecular target: T11, JAK1 (Homo sapiens, UniProt P23458)
T11 construct: purchased Invitrogen / ThermoFisher SelectScreen
In short: as §1

[12] = molecular target: T12, PI3K- G (Homo sapiens, UniProt P48736)
T12 construct: purchased Invitrogen / ThermoFisher SelectScreen
In short: as §1

[13] = molecular target: T13, Fes (Homo sapiens, UniProt P07332)
T13 construct: purchased Invitrogen / ThermoFisher SelectScreen
In short: as §1

[14] = molecular target: T14, CDK9/cyclinT1 (Homo sapiens, UniProt P50750)
T14 construct: purchased Invitrogen / ThermoFisher SelectScreen
In short: as §1

[15] = molecular target: T15, CDK1/cyclinB (Homo sapiens, UniProt P06493)
T15 construct: purchased Invitrogen / ThermoFisher SelectScreen
In short: as §1

[16] = molecular target: T16, DYRK3 (Homo sapiens, UniProt O43781)
T16 construct: purchased Invitrogen / ThermoFisher SelectScreen
In short: as §1

[17] = molecular target: T17, BTK (Homo sapiens, UniProt Q06187)
T17 construct: purchased Invitrogen / ThermoFisher SelectScreen
In short: as §1

[18] = molecular target: T18, TXK (Homo sapiens, UniProt P42681)
T18 construct: purchased Invitrogen / ThermoFisher SelectScreen
In short: as §1

[19] = molecular target: T19, PAK4 (Homo sapiens, UniProt O96013)
T19 construct: purchased Invitrogen / ThermoFisher SelectScreen
In short: as §1

[20] = molecular target: T20, IKK_alpha (Homo sapiens, UniProt O15111)
T20 construct: purchased Invitrogen / ThermoFisher SelectScreen
In short: as §1

[21] = molecular target: T21, MSK1 (Homo sapiens, UniProt O75582)
T21 construct: purchased Invitrogen / ThermoFisher SelectScreen
In short: as §1

[22] = molecular target: T22, NEK6 (Homo sapiens, UniProt Q9HC98)
T22 construct: purchased Invitrogen / ThermoFisher SelectScreen
In short: as §1

[23] = molecular target: T23, PLK3 (Homo sapiens, UniProt Q9H4B4)
T23 construct: purchased Invitrogen / ThermoFisher SelectScreen
In short: as §1

[24] = molecular target: T24, PAK6 (Homo sapiens, UniProt Q9NQU5)
T24 construct: purchased Invitrogen / ThermoFisher SelectScreen
In short: as §1

[25] = molecular target: T25, MAPKAPK2 (Homo sapiens, UniProt P49137)
T25 construct: purchased Invitrogen / ThermoFisher SelectScreen
In short: as §1

[26] = molecular target: T26, ERK2 (Homo sapiens, UniProt P28482)
T26 construct: purchased Invitrogen / ThermoFisher SelectScreen
In short: as §1

[27] = molecular target: T27, MKNK1 (Homo sapiens, UniProt Q9BUB5)
T27 construct: purchased Invitrogen / ThermoFisher SelectScreen
In short: as §1

[28] = molecular target: T28, EphB3 (Homo sapiens, UniProt P54753)
T28 construct: purchased Invitrogen / ThermoFisher SelectScreen
In short: as §1

[29] = molecular target: T29, MuSK (Homo sapiens, UniProt O15146)
T29 construct: purchased Invitrogen / ThermoFisher SelectScreen
In short: as §1

[30] = molecular target: T30, KDR (Homo sapiens, UniProt P35968)
T30 construct: purchased Invitrogen / ThermoFisher SelectScreen
In short: as §1

[31] = molecular target: T31, MAPKAPK3 (Homo sapiens, UniProt Q16644)
T31 construct: purchased Invitrogen / ThermoFisher SelectScreen
In short: as §1

[32] = molecular target: T32, Kit (Homo sapiens, UniProt P10721)
T32 construct: purchased Invitrogen / ThermoFisher SelectScreen
In short: as §1

[33] = molecular target: T33, HIPK2 (Homo sapiens, UniProt Q9H2X6)
T33 construct: purchased Invitrogen / ThermoFisher SelectScreen
In short: as §1

T25 sequence (P49137 whole entry): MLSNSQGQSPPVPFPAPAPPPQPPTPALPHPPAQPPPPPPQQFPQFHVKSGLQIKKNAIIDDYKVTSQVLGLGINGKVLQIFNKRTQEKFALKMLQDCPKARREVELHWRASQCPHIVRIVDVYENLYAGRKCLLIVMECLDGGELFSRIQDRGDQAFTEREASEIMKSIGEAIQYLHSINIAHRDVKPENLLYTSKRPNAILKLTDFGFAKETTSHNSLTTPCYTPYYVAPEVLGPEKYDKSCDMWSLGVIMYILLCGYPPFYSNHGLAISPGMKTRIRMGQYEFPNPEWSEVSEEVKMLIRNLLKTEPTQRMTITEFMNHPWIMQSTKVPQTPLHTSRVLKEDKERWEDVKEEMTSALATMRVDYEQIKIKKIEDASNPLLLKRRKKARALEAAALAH
T2 sequence (Q9P289 whole entry): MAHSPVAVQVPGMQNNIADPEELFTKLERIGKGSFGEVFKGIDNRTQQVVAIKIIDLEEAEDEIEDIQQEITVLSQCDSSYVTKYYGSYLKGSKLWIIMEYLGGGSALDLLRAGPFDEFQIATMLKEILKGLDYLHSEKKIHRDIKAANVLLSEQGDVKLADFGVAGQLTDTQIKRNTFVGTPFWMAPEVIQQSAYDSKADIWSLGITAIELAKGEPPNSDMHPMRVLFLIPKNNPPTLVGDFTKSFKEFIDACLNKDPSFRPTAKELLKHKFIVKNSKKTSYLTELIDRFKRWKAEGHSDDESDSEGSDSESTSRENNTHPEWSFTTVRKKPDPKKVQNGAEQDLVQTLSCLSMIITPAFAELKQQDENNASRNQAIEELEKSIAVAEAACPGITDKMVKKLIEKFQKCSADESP
T21 sequence (O75582 whole entry): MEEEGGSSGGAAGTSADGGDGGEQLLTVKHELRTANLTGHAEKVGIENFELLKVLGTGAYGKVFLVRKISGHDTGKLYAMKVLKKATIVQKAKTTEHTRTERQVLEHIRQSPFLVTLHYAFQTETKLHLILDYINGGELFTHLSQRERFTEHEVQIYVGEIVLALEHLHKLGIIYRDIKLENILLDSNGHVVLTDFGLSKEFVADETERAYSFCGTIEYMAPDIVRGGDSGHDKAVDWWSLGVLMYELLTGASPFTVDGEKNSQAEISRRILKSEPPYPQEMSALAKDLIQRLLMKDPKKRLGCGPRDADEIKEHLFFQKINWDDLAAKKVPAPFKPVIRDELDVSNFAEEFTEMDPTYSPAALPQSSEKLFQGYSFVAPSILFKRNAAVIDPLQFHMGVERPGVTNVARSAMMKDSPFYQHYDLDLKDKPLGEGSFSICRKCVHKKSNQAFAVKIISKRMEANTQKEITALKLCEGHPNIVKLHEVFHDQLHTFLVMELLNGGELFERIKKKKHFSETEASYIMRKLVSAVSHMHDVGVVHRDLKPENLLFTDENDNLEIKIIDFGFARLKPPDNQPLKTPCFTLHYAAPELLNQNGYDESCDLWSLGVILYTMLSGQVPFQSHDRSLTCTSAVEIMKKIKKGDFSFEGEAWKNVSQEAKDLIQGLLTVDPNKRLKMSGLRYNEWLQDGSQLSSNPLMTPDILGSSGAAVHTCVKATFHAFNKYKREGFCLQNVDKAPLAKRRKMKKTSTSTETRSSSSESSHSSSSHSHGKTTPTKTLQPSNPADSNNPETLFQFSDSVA
T17 sequence (Q06187 whole entry): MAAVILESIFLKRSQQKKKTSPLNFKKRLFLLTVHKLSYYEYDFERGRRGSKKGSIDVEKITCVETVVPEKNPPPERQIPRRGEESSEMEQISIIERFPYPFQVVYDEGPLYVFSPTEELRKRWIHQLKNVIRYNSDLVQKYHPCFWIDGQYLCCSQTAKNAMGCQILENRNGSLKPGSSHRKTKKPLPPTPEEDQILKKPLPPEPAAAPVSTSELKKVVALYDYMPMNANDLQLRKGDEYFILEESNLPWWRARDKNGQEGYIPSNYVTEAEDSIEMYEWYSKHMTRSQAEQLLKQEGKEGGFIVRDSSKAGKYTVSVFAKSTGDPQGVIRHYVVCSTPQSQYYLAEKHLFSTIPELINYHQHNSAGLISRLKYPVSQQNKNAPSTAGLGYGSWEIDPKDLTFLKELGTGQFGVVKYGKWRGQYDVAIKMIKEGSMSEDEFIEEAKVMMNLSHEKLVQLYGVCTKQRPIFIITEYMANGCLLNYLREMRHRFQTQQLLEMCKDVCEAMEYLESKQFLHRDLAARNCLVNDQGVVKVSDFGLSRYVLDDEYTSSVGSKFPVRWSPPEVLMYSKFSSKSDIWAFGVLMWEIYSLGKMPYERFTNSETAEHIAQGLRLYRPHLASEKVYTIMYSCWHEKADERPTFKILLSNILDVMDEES
T16 sequence (O43781 whole entry): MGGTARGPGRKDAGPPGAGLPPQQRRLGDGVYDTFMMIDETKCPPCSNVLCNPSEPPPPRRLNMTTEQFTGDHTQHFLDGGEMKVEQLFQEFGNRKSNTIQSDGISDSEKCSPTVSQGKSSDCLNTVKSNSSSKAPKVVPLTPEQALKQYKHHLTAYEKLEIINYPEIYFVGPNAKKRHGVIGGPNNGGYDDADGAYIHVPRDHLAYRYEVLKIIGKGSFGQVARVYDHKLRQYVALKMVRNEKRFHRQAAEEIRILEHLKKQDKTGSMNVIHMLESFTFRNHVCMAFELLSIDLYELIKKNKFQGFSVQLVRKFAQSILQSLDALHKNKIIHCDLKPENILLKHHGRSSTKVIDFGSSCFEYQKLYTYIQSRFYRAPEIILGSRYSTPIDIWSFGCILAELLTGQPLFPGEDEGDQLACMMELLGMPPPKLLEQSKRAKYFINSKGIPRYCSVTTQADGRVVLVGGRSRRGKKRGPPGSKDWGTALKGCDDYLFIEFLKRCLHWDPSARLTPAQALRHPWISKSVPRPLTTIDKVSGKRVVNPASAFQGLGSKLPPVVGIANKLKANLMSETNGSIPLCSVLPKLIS
T20 sequence (O15111 whole entry): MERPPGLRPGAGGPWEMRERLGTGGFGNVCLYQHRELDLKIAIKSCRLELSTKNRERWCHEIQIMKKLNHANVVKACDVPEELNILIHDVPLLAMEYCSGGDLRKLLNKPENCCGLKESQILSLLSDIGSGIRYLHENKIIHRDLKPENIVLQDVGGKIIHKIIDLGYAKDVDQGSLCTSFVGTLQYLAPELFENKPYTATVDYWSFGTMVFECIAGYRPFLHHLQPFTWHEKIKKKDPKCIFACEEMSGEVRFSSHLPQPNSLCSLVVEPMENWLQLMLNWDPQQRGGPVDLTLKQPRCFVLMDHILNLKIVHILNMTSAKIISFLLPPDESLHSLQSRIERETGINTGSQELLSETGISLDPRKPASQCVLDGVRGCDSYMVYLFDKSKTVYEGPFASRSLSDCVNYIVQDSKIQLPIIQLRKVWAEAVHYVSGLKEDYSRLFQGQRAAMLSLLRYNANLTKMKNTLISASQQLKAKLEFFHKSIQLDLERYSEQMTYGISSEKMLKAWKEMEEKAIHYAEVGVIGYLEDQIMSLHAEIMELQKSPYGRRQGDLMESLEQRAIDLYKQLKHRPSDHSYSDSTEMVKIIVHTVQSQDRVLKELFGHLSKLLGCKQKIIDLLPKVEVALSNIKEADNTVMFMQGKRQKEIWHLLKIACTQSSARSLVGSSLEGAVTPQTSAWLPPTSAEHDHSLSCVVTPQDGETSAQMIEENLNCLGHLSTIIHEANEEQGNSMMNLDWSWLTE
T6 sequence (Q9H3Y6 whole entry): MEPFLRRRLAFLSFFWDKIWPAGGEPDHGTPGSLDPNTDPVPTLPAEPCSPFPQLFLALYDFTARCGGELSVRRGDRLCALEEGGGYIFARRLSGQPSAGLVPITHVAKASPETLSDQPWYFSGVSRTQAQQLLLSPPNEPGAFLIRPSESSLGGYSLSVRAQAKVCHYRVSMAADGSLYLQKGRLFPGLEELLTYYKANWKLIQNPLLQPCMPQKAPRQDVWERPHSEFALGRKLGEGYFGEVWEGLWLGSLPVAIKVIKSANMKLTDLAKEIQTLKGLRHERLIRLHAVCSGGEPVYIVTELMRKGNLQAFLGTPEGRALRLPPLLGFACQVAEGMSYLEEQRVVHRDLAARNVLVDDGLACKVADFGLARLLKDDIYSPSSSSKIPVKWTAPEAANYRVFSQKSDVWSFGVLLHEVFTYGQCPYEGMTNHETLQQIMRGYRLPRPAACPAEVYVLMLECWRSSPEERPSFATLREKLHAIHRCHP
T9 sequence (P78368 whole entry): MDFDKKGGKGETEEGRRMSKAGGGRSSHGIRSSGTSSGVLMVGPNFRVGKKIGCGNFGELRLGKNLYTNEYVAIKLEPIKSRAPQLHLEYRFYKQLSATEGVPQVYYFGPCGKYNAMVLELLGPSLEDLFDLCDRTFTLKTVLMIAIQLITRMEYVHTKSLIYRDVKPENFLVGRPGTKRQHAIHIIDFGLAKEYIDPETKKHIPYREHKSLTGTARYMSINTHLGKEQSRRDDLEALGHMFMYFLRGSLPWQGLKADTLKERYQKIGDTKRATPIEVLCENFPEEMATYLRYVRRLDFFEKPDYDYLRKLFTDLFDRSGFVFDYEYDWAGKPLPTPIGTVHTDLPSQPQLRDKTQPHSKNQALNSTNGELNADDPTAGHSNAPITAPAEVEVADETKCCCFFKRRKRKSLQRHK
T27 sequence (Q9BUB5 whole entry): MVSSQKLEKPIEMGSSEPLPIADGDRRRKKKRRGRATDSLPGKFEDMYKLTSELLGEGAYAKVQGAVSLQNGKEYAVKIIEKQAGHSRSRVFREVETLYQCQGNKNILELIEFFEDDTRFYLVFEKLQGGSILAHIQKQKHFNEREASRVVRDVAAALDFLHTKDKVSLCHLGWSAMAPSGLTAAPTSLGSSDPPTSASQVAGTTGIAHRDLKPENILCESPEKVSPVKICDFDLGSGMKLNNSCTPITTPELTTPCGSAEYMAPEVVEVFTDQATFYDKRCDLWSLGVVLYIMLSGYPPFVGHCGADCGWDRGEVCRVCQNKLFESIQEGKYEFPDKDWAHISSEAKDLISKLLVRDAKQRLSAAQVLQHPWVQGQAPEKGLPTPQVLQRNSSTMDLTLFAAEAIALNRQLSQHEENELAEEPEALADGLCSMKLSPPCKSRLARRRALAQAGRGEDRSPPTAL

In the case of COc1cc(C(N)=O)nc(-c2cccc(C#C[C@]3(O)CCN(C)C3=O)c2)c1 [NIK SMI1], the inhibition at 1 µM [1] is reported as 9.5%, the inhibition at 1 µM [2] is reported as 33.5% and the inhibition at 1 µM [3] is reported as 25%. The inhibition at 1 µM [4] was 9%, the inhibition at 1 µM [5] was -4.5% and the inhibition at 1 µM [6] was 12%. The inhibition at 1 µM [7] was 3%, the inhibition at 1 µM [8] was 61% and the inhibition at 1 µM [9] was 8.5%. It also gave an inhibition at 1 µM [10] of 30.5%, an inhibition at 1 µM [11] of -7% and an inhibition at 1 µM [12] of -2.9%. The inhibition at 1 µM [13] was 20.5%, the inhibition at 1 µM [14] was 15.3% and the inhibition at 1 µM [15] was 8.5%. It also gave an inhibition at 1 µM [16] of 1.5%, an inhibition at 1 µM [17] of -3% and an inhibition at 1 µM [18] of 4.5%. For the same compound, the inhibition at 1 µM [19] was 64%, the inhibition at 1 µM [20] was 3.1% and the inhibition at 1 µM [21] was 7.5%. The inhibition at 1 µM [22] was 17%, the inhibition at 1 µM [23] was 9% and the inhibition at 1 µM [24] was 31.5%. It also gave an inhibition at 1 µM [25] of -5%, an inhibition at 1 µM [26] of 5.5% and an inhibition at 1 µM [27] of 2%. For the same compound, the inhibition at 1 µM [28] was 5.5%, the inhibition at 1 µM [29] was 6% and the inhibition at 1 µM [30] was -1.5%. For the same compound, the inhibition at 1 µM [31] was 1%, the inhibition at 1 µM [32] was -3.5% and the inhibition at 1 µM [33] was 17.5%.
